Activity calls are given as the source filed them. No cut-off for these calls is given here.
Columns and labels:
MCF7 = test: Cytotoxicity against human MCF7 cells by MTT assay; assay type: functional, cell-based
NCI-H460 = test: Cytotoxicity against human NCI-H460 cells by MTT assay; assay type: functional, cell-based
SF-268 = test: Cytotoxicity against human SF-268 cells by MTT assay; assay type: functional, cell-based
AGS = test: Cytotoxicity against human AGS cells by MTT assay; assay type: functional, cell-based
HCT-116 = test: Cytotoxicity against human HCT116 cells by MTT assay; assay type: functional, cell-based
[1] = molecular target: T1, Prostaglandin G/H synthase 2 (Homo sapiens) (UniProt P35354); test: Inhibition of cyclooxygenase 2 at 103.7 uM
T1 sequence (whole entry): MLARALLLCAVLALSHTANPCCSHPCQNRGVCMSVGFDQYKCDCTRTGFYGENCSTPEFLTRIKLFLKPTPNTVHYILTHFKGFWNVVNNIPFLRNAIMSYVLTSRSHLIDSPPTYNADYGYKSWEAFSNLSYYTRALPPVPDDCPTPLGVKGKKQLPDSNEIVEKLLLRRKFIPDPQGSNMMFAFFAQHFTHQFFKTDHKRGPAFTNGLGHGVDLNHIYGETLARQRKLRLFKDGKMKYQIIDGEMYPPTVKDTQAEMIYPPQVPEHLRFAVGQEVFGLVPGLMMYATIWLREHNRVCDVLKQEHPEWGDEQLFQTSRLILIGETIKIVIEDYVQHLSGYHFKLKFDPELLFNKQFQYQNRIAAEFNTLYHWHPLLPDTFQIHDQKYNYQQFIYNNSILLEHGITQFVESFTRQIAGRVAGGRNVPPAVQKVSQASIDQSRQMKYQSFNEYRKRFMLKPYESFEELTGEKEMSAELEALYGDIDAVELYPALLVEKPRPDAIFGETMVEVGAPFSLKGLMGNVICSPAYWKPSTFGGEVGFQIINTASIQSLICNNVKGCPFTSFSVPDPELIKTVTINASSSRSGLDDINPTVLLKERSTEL

[2] = molecular target: Prostaglandin G/H synthase 1 (Homo sapiens) (UniProt P23219); test: Inhibition of cyclooxygenase 1 at 103.7 uM
Chain of Prostaglandin G/H synthase 1 (Homo sapiens) (P23219 whole entry): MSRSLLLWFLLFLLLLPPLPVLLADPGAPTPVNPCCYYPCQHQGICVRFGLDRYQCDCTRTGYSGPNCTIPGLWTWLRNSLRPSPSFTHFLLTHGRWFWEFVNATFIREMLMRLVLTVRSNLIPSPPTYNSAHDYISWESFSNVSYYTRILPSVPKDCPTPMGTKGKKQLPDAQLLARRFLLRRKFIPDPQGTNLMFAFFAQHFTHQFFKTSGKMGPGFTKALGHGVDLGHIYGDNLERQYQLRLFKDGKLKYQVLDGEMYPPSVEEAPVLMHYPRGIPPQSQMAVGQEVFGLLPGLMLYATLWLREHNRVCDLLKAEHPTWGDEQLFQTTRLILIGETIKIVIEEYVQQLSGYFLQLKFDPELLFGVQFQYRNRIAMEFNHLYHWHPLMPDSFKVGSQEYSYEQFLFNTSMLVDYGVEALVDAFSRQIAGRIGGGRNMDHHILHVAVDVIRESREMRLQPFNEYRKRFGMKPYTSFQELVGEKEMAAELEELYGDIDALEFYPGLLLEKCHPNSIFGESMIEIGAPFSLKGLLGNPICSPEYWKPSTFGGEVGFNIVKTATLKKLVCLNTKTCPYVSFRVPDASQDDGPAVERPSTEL

| Structure (SMILES) | IC50 (MCF7) [µM] | IC50 (NCI-H460) [µM] | IC50 (SF-268) [µM] | IC50 (AGS) [µM] | IC50 (HCT-116) [µM] | Activity (MCF7) | Activity [1] | Activity [2] | Activity (NCI-H460) | Activity (SF-268) | Activity (AGS) | Activity (HCT-116) |
| --- | --- | --- | --- | --- | --- | --- | --- | --- | --- | --- | --- | --- |
| COc1cccc2c1C(=O)c1c(O)c3c(c(O)c1C2=O)C[C@@](O)(C(=O)CO)C[C@@H]3O[C@H]1C[C@H](N)[C@H](O)[C@H](C)O1 [DOXORUBICIN] | 0.43 | 0.66 | 1.55 | 0.31 | 0.41 | – | – | – | – | – | – | – |
| CCC(C)C(=O)C12C(=O)C=C(O)C(C[C@H](CC=C(C)C)[C@@]1(C)CC/C=C(\C)CCC=C(C)C)C2=O (stereo partly specified) | – | – | – | – | – | inactive | inactive | inactive | inactive | inactive | inactive | inactive |
| CC(C)=CCC/C(C)=C/CC[C@]1(C)[C@@H](CC=C(C)C)CC2C(=O)C1(C(=O)C(C)C)C(=O)C=C2O (stereo partly specified) | – | – | – | – | – | inactive | inactive | inactive | inactive | inactive | inactive | inactive |
| CCC(C)C(=O)c1c(O)cc(O)c2c1O[C@](C)(CC/C=C(\C)CCC=C(C)C)[C@@H](CC=C(C)C)C2 (stereo partly specified) [PROLIFICIN A] | 23.7 | 29.9 | 30.9 | 32.4 | 35.1 | – | inactive | inactive | – | – | – | – |
